One data set concerns WP2 uvrA (pKM101). In words: Ames test, strain WP2 uvrA (pKM101). The conditions noted are these: with S9-mix, dose level 10 per plate, positive control. As to the method: (§1) oxidative metabolism system (S9-mix). The maximum concentration tested and […]
(§2) Compound 7a was tested in a bacterial mutation screening assay (Ames test) with Salmonella typhimurium TA1535, TA1537, TA98, TA100 and Escherichia coli WP2uvrA(pKM101) in the presence and absence of an exogenous mammalian […]
(§3) The bacterial mutation screening assay was a plate incorporation test carried out as previously described15 and according to current methodology. […]
(In general: The Ames test detects mutagens through reverse mutation in bacteria.)

The next data set deals with TA1537. In words: Ames test, strain TA1537. As to the method:
as §1, §2, §3

The subject of the next data set is TA100. The following applies: positive control. As to the method:
as §1, §2, §3

The next data set concerns TA1535. The conditions noted are these: positive control. As to the method: as §1, §2, §3
For another data set, the system named is TA98. In words: Ames test, strain TA98. The following applies: without S9-mix, dose level 1 per plate, positive control. As to the method: as §1, §2, §3
Data set [1] is described as follows: CAD (charged aerosol detector) solubility.
Data set [2] is described as follows: Intrinsic clearance in mouse liver microsomes. Format: in vitro ADME. As to the method: page 13: 4. Parasite assays T. cruzi4, Leishmania donovani axenic amastigote, cidal axenic amastigote and intra- macrophage drug sensitivity assays were conducted as previously described5,6. a. […] Instead of a single readout at 72 h, multiple identical plates were used and read at different time points (24, 48, 72 h). Rate of kill curves showing the luminescence signal at each time point for each concentration were plotted. 5. […] The rate of intrinsic clearance (CLint) of each test compound was then calculated using the following calculation: CLint(mL/min/g liver) = k x V x Microsomal protein yield Where V (mL/mg protein) is the incubation volume/mg protein added and microsomal protein yield is taken as 52.5 mg protein/g liver. Verapamil (0.5 μM) was used as a positive control to confirm acceptable assay performance. 6. Pharmacokinetic studies. a. Mouse and dog PK Mouse pharmacokinetic studies were conducted in male CD-1 mice and male beagle dogs. 3 animals per group were used for each study performed. A dose of 3 mg/kg was administered intravenously, in a bolus form to mice and infused over a 30 min period to dogs. For all the intravenous studies compound were dissolved in 5% DMSO/20% kleptose in saline. A dose of 10 mg/kg was orally administered by gavage to the two species in a suspension of 1% methylcellulose to investigate oral pharmacokinetics. S13
(In general: Liver microsomes are a subcellular fraction often used to study metabolism.)

The subject of a further data set is THP-1 cells. In words: Mammalian cell growth inhibition (THP-1). Type of data set: cell-based. The following applies: Homo sapiens. The text has this:
We hypothesized that, in view of their structural similarity, 1 and 2 probably shared the same mechanism of action.

The test system of data set [3] is L. donovani intramacrophage amastigotes. In words: L. donovani intramacrophage assay (amastigotes in differentiated THP-1 cells). Format: cell-based, Leishmania donovani. The conditions noted are these: for EC50: Leishmania donovani, L. donovani amastigotes in differentiated THP-1 cells, read-out: Intramacrophage EC50. As to the method:
T. cruzi4, Leishmania donovani axenic amastigote, cidal axenic amastigote and intra-
macrophage drug sensitivity assays were conducted as previously described5,6. […]
5. Intrinsic clearance (CLint) […]
6. Pharmacokinetic studies. […]

The nature of data set [4]: Solubility in fasted simulated intestinal fluid (FaSSIF). The following applies: for FaSSIF solubility: fasted simulated intestinal fluid; for solubility: fasted simulated intestinal fluid (FaSSIF), fassif.
Data set [5] has as its system Salmonella typhimurium TA1535, TA1537, TA98, TA100 and Escherichia coli WP2uvrA(pKM101). In words: Bacterial mutation screening assay (Ames test), overall outcome. Type of data set: cell-based. The following applies: presence and absence of S9-mix. As to the method:
i. Bacterial Mutation (Ames) Assay
Compound 6 was tested in a bacterial mutation screening assay (Ames test) with Salmonella typhimurium TA1535, TA1537, TA98, TA100 and Escherichia coli WP2uvrA(pKM101) in the presence and absence of an exogenous mammalian oxidative metabolism system (S9-mix). The maximum concentration tested and […]
Compound 6a was tested in a bacterial mutation screening assay (Ames test) with […]
Compound 7a was tested in a bacterial mutation screening assay (Ames test) with […]
as §3

A further data set deals with mouse lymphoma cells. Nature of the data set: Mouse lymphoma assay. The conditions noted are these: for MF (Mutation Frequency) / RTG (Relative Total Growth): positive control. As to the method: oxidative metabolism system (S9-mix). […]
The maximum […]
concentrations analysed were 410.45 µg/mL (1 mM, the maximum concentration in accordance with current guidelines and 100 µg/mL (limited by toxicity), for the 3 and […]
The mouse lymphoma screen was carried out using test methodology based on established procedures for in vitro gene mutation testing17,18,19,20. […]

The subject of data set [6] is L. donovani promastigotes. In words: microbe, parasite or virus in culture. Format: cell-based, Leishmania donovani. The following applies: read-out: EC50. As to the method: 9. Mode of action studies a. Cell lines and culture conditions […]
c. Generation of drug-resistant parasites […]
donovani in the continuous presence of this compound. Starting at a sub-lethal […]
After a total of 120 days in
Genomic DNA was harvested from three independently generated L. donovani resistant clones and an age match control, as previously described27. PCR was performed using Platinum PCR Supermix (Invitrogen), as per manufacturer’s […]
generated using primers SubunitB4FW and SubunitB4RV, then sequenced using primer SubunitB4FW (Table S6). To sequence the β5 subunit (LdBPK_361730.1), an […]
sequenced using primer SubunitB5FW. PCR amplification and DNA sequencing were performed in triplicate for each independently generated cell line. The Leishmania donovani BPK282A1 sequences of the two subunits were identified in TriTrypDB and […]
e. Generation of overexpression constructs and LdBOB transgenic cell lines The genes encoding the mutated versions of the β4 (LdBPK_360340.1) and the β5 […]
parasites, were synthesised (GeneArt, Thermo Fischer Scientific). The synthetic genes, flanked by BamHI sites were cloned into the equivalent site of pIR1-SAT. The accuracy of all assembled constructs was verified by sequencing.
Mid-log-phase L. donovani promastigotes (LdBOB) were transfected with overexpression constructs using the Human T-Cell Nucleofector kit and the Amaxa Nucleofector electroporator (program V-033). Following transfection, cells were […]
to appropriate drug selection (100 µg/mL nourseothricin). Cloned cell lines were […]
selection for one passage prior to experiments. […]

Data set [7] has as its system chymotrypsin-like activity of the L. donovani proteasome. Nature of the data set: biochemical. The conditions noted are these: lysates from RES II and WT parasites. On the set-up: species or system Leishmania donovani.
Method: An in vitro assay was developed that enabled the chymotrypsin-like activity and additional proteolytic activities associated with the proteasome to be directly monitored within proteasome-enriched parasite cell lysates. Likewise, human proteasome from two sources (i.e., commercially pure 26S and enriched proteasome fractions from THP-1 lysates) was tested using the same biochemical assays.
Proteasome enrichment by ultracentrifugation
The protocol described by Kisselev et al.34 was adapted to enrich the proteasomes present in L. donovani and THP1 crude extracts. L. donovani or THP1 cells were resuspended in sucrose buffer (50 mM Tris buffer pH 7.5, 5 mM Magnesium chloride, 1 mM EDTA, 50 mM NaCl, 250 mM sucrose, 2 mM ATP, 1 mM DTT) and lysed by nitrogen cavitation for 15 min (110 bars of 1500 psi). Lysates were centrifuged at 20,000g for 30 min at 4 °C and supernatants containing soluble protein were subjected to an ultracentrifugation step at 300,000g for 2h at 4 °C. The resulting proteasome-containing pellets were resuspended in sucrose buffer and left on ice for 30 min to complete solubilization. Samples were centrifuged for 10 min at 20,000 g to remove insoluble material. Proteins contained in supernatant (proteasome enriched fraction) were measured by Bradford.
Proteasome activity assays
Compounds were dispensed into black 384-well assay plates (Greiner) by acoustic dispensing (LabCyte ECHO). For potency determinations, eleven-point, one in three dilution curves were generated, with a top concentration of 100 µM. Three proteasome activities were measured using a commercially available indirect enzyme-based luminescent assay kit (Promega) with Suc-LLVY-aminoluciferin, Z-LRR-aminoluciferin and Z-nLPnLD-aminoluciferin used as substrates for chymotrypsin-like, trypsin-like and caspase-like activities, respectively. In addition to proteasome samples: L. donovani and THP1-enriched proteasomes, commercially available human purified 26S proteasome (Boston Biochem) was also assessed.
[8] abbreviates: with S9-mix, dose level 5 per plate, positive control.
The mark [9] stands for this setting: with S9-mix, dose level 5 per plate.
[10] abbreviates: without S9-mix, dose level 50 per plate.
[11] abbreviates: without S9-mix, dose level 2 per plate.

Values after ≈ are worked out from the molar mass of the structure shown. “Also recorded” adds a separate entry of the source. Where two headings read alike, the source gives them in different places.

Results on 13 molecules are retold here after publication PMC6511062, “Preclinical candidate for the treatment of visceral leishmaniasis that acts through proteasome inhibition” (Proceedings of the National Academy of Sciences of the …, 2019).

On to `Nc1ccc2cc3ccccc3cc2c1` [Compound 2-AAN, 2-Aminoanthracene, reference compound], for which the “Mean revertants per plate” value was 1650.5 in the data set on WP2 uvrA (pKM101), 153.0 in the data set on TA1537 (setting [8]), 4441.0 in the data set with TA100 (setting [9]) and 490.5 with TA1535 (setting [9]). Besides, the “Ratio treated / solvent” value with WP2 uvrA (pKM101) was 11.1; with TA1537 (setting [8]), 6.7; in the data set on TA100 (setting [9]), 33.6; in the data set on TA1535 (setting [9]), 31.6.
Take `O=[N+]([O-])c1ccc2c(c1)Cc1ccccc1-2` [Compound 2NF, 2-Nitrofluorene, reference compound]: in the data set with TA98, the “Mean revertants per plate” value came to 417.5 and the “Ratio treated / solvent” value came to 20.5.
As a reminder, the solubility is the dissolved amount per volume that the medium holds. For orientation: EC50 means the midpoint of the concentration-response curve. In the case of `CCOc1cnc2nc(-c3cccc(NC(=O)c4ccco4)c3)cn2c1` [Compound 3], in [1], the solubility was 7 µg/mL (≈ 20.1 µM). In data set [2], the CLint came out at 1.8 mL/min/g and the “CLint (intrinsic clearance when incubated with mouse liver microsomes)” value was determined as 1.8 mL/min per gram. In the data set with THP-1 cells, this molecule registered a concentration giving a half-maximal response (EC50) of more than 50 µM. In addition, the 50% effective concentration (EC50) in [3] came out at 4.2 µM.
On the same counts, the results for `CCOc1cnc2nc(-c3cccc(NC(=O)N4CCCC4)c3)cn2c1` [Compound 4] are 7 µg/mL (≈ 19.9 µM), 0.59 mL/min/g, 0.59 mL/min per gram, more than 50 µM and 3.3 µM.
`O=C(Nc1cccc(-c2cn3cc(N4CCOCC4)cnc3n2)c1)N1CCCC1` [Compound 5]: in [1], the solubility came to 43 µg/mL (≈ 110 µM). In data set [2], the CLint turned out to be 0.76 mL/min/g and the “CLint (intrinsic clearance when incubated with mouse liver microsomes)” value stood at 0.76 mL/min per gram. In the data set on THP-1 cells, this molecule yielded an EC50 of more than 50 µM. For the same molecule, the EC50 in data set [3] came to 8.2 µM.
Take `O=C(Nc1ccc(F)c(-c2cn3cc(-c4ccccc4)cnc3n2)c1)N1CCCC1` [Compound 6]: the FaSSIF solubility result in data set [4] is listed as “poor solubility”. The solubility in [4] was 4 µg/mL (≈ 9.96 µM); in data set [1], 8 µg/mL (≈ 19.9 µM). Besides, the CLint in data set [2] is recorded as 2.6 mL/min/g. For the same molecule, the EC50 in the data set on THP-1 cells was more than 50 µM; in data set [3] it was 0.15 µM. Besides, the AMES result in data set [5] is recorded as “not mutagenic; also recorded: negative”.
On to `O=C(Nc1ccc(F)c(-c2cn3cc(N4CCOCC4)cnc3n2)c1)N1CCCC1` [Compound 6a], for which, in data set [4], the FaSSIF solubility result is “poor solubility”. Also, the solubility in data set [4] was 6 µg/mL (≈ 14.6 µM); in data set [1], 39 µg/mL (≈ 95 µM). For the same molecule, the CLint in [2] is reported as less than 0.5 mL/min/g. Moreover, the results for the EC50 (in the data set with THP-1 cells; in data set [3]) were more than 50 µM and 0.6 µM, respectively. For the same molecule, in [3] (relative to 5), the “improvement of intramacrophage potency” value was more than 10 fold. Further, the AMES result in data set [5] is recorded as “mutagenic in strain TA1537 when tested in the absence of S9-mix; also recorded: positive”.
Turning to `Nc1c2ccccc2nc2ccccc12` [Compound 9-AAC, 9-Amino Acridine, reference compound], in the data set on TA1537 (setting [10]), the “Mean revertants per plate” value came to 249.5 and the “Ratio treated / solvent” value worked out at 17.4.
As to `Cc1c2ccccc2c(C)c2c1ccc1ccccc12` [DMBA, 7,12-dimethylbenz[a]anthracene, reference compound], in the data set with mouse lymphoma cells (3 hour +S9 treatment), the “Positive / Negative” value is on record as “Positive”, the “MF (Mutation Frequency)” value was 1783.48 ×10-6 and the “RTG (Relative Total Growth)” value is given as 28%.
In the case of `Cc1nc(C)c(C(=O)Nc2ccc(F)c(-c3nc4ncc(-c5ccccn5)cn4n3)c2)o1` [GNF6702, reference compound], the EC50 turned out to be 0.527 ± 0.012 µM in data set [6] (RES I (compound 7-resistant clone)), 0.768 ± 0.038 µM in data set [6] (RES III (compound 7-resistant clone)) and 0.0018 ± 2e-06 µM in data set [6] (WT promastigotes).
As to `COS(C)(=O)=O` [MMS, methylmethansulfonate, reference compound], in the data set with mouse lymphoma cells (24 hour -S9 treatment), the “Positive / Negative” value was “Positive”, the “MF (Mutation Frequency)” value is listed as 938.58 ×10-6 and the “RTG (Relative Total Growth)” value amounted to 73%.
Take `[N-]=[N+]=[N-].[Na+]` [NaN3, Sodium Azide, reference compound]: in the data set on TA100 (setting [11]), the “Mean revertants per plate” value was 1050.0 and the “Ratio treated / solvent” value is given as 10.1. Besides, in the data set on TA1535 (setting [11]), the “Mean revertants per plate” value is reported as 1128.5 and the “Ratio treated / solvent” value was found to be 44.5.
`CC(C)C[C@H](NC(=O)[C@H](CCc1ccccc1)NC(=O)CN1CCOCC1)C(=O)N[C@@H](Cc1ccccc1)C(=O)N[C@@H](CC(C)C)C(=O)[C@@]1(C)CO1` [carfilzomib, reference compound]: the “inhibition of chymotrypsin-like activity, RES II vs WT lysates” value in data set [7] was “equal potency”.
